One test deals with cryptosporidiosis. To be noted: cited from earlier work.
In another test the test system is C. parvum. Nature of the test: In vitro inhibition of C. parvum development in HCT-8 cells. The note with it: Cryptosporidium parvum. It counts as cell-based.
Where [1] appears, read: HCT-8 cells, Table 4, read-out: EC50 for inhibition of C. parvum development in HCT-8 cells.
The mark [2] stands for this setting: average EC50, C. parvum in HCT-8 cells, read-out: Cp HTC-8 Avg EC50.

The source of these data is patent US20230212172A1, “ARYLACETAMIDE ANALOGS OF PIPERAZINE-[1,2,4]TRIAZOLO[4,3-B]PYRIDAZINES” (University of Vermont and State Agricultural College, priority 2020, published 2023).

Read-outs that look alike come from different tables or passages of the source.

For the molecule `CC(=O)Oc1ccccc1C(=O)Nc1ncc([N+](=O)[O-])s1` [Nitazoxanide], the efficacy in cryptosporidiosis result with cryptosporidiosis (AIDS patients) is “no more effective than placebo”; in the test on cryptosporidiosis (children), “partial efficacy”.

Broadly, the EC50 is the midpoint of the concentration-response curve. In the case of `O=C(Cc1c(F)c(F)c(F)c(F)c1F)N1CCN(c2ccc3nncn3n2)CC1` [Example 10090, 2-(2,3,4,5,6-pentafluorophenyl)-1-(4-{[1,2,4]triazolo[4,3-b]pyridazin-6-yl}piperazin-1-yl)ethan-1-one], the concentration for a half-maximal effect (EC50) in the test on C. parvum (setting [1]) was greater than 50000 nM.

As to `O=C(Cc1ccc(CO)cc1)N1CCN(c2ccc3nncn3n2)CC1` [Example 2818], in the test with C. parvum (setting [1]), the EC50 was greater than 25000 nM. Turning to `O=C(Cc1ccc(Cl)c(C(F)(F)F)c1)N1CCN(c2ccc3nncn3n2)CC1` [Example 10481, 2-[4-chloro-3-(trifluoromethyl)phenyl] -1-(4-{[1,2,4]triazolo[4,3-b]pyridazin-6-yl}piperazin-1-yl)ethan-1-one], the half-maximal effective concentration (EC50) with C. parvum (setting [1]) and with C. parvum (setting [2]) was 272 nM in each case. As to `O=C(Cc1ccc(Cl)c(Br)c1)N1CCN(c2ccc3nncn3n2)CC1` [Example 10239, 2-(3-bromo-4-chlorophenyl)-1-(4-{[1,2,4]triazolo[4,3-b]pyridazin-6-yl}piperazin-1-yl)ethan-1-one], the concentration giving a half-maximal response (EC50) in the test with C. parvum (setting [1]) and in the test with C. parvum (setting [2]) was 121 nM throughout. With `O=C(Cc1cccc(Cl)c1Cl)N1CCN(c2ccc3nncn3n2)CC1` [Example 2798, 2-(2,3-dichlorophenyl)-1-(4-{[1,2,4]triazolo[4,3-b]pyridazin-6-yl}piperazin-1-yl)ethan-1-one], the EC50 in the test with C. parvum (setting [1]) is greater than 25000 nM. Still for that read-out and setting: under `O=C(Cc1ccc2ccccc2c1)N1CCN(c2ccc3nncn3n2)CC1` [Example 2749, 2-(naphthalen-2-yl)-1-(4-{[1,2,4]triazolo[4,3-b]pyridazin-6-yl}piperazin-1-yl)ethan-1-one] stands 12400 nM. Still for that read-out and setting: for `O=C(Cc1ccc(COn2nnc3ccccc32)cc1)N1CCN(c2ccc3nncn3n2)CC1` [Example 2796, 2-{4-[(1H-1,2,3-benzotriazol-1-yloxy)methyl]phenyl}-1-(4-{[1,2,4]triazolo[4,3-b]pyridazin-6-yl}piperazin-1-yl)ethan-1-one] the value was greater than 25000 nM.

With `O=C(Cc1ccc(Br)cc1)N1CCN(c2ccc3nncn3n2)CC1` [Example 2767, 2-(4-bromophenyl)-1-(4-{[1,2,4]triazolo[4,3-b]pyridazin-6-yl}piperazin-1-yl)ethan-1-one], in the test on C. parvum (setting [1]), the EC50 is 1120 nM. With `C#Cc1ccc(CC(=O)N2CCN(c3ccc4nncn4n3)CC2)cc1` [Example 10046, 2-(4-ethynylphenyl)-1-(4-{[1,2,4]triazolo[4,3-b]pyridazin-6-yl}piperazin-1-yl)ethan-1-one], the half-maximal effective concentration (EC50) in the test on C. parvum (setting [1]) and in the test on C. parvum (setting [2]) was 883 nM each time.

With `O=C(Cc1cc(Cl)ccc1Cl)N1CCN(c2ccc3nncn3n2)CC1` [Example 2746, 2-(2,5-dichlorophenyl)-1-(4-{[1,2,4]triazolo[4,3-b]pyridazin-6-yl}piperazin-1-yl)ethan-1-one], the concentration for a half-maximal effect (EC50) in the test with C. parvum (setting [1]) turned out to be 33000 nM. On the same count and under the same terms, under `O=C(Cc1ccccc1Cl)N1CCN(c2ccc3nncn3n2)CC1` [Example 2178, 2-(2-chlorophenyl)-1-(4-{[1,2,4]triazolo[4,3-b]pyridazin-6-yl}piperazin-1-yl)ethan-1-one] stands greater than 25000 nM. For `Cc1cc(CC(=O)N2CCN(c3ccc4nncn4n3)CC2)ccc1F` [Example 2759, 2-(4-fluoro-3-methylphenyl)-1-(4-{[1,2,4]triazolo[4,3-b]pyridazin-6-yl}piperazin-1-yl)ethan-1-one], the EC50 with C. parvum (setting [1]) was determined as 335 nM; with C. parvum (setting [2]), 353 nM. For `O=C(Cc1ccc([N+](=O)[O-])cc1)N1CCN(c2ccc3nncn3n2)CC1` [Example 2755, 2-(4-nitrophenyl)-1-(4-{[1,2,4]triazolo[4,3-b]pyridazin-6-yl}piperazin-1-yl)ethan-1-one], the EC50 in the test on C. parvum (setting [1]) came to 2580 nM. Regarding `Cc1ccc(CC(=O)N2CCN(c3ccc4nncn4n3)CC2)cc1Cl` [Example 2756, 2-(3-chloro-4-methylphenyl)-1-(4-{[1,2,4]triazolo[4,3-b]pyridazin-6-yl}piperazin-1-yl)ethan-1-one], the half-maximal effective concentration (EC50) in the test with C. parvum (setting [1]) was 1260 nM. As to `O=C(Cc1ccc(Cl)c(Cl)c1)N1CCN(c2ccc3nnc(-c4ccnc(C(F)(F)F)c4)n3n2)CC1` [Example 10262, 2-(3,4-dichlorophenyl)-1-(4-{3-[2-(trifluoromethyl)pyridin-4-yl]-[1,2,4]triazolo[4,3-b]pyridazin-6-yl}piperazin-1-yl)ethan-1-one], in the test on C. parvum (setting [1]), the concentration for a half-maximal effect (EC50) was found to be 6110 nM. On the same count and under the same terms, for `O=C(Cc1ccc(CN2CCOCC2)cc1)N1CCN(c2ccc3nncn3n2)CC1` [Example 2817, 2-{4-[(Morpholin-4-yl)methyl]phenyl}-1-(4-{[1,2,4]triazolo[4,3-b]pyridazin-6-yl}piperazin-1-yl)ethan-1-one] the value was greater than 25000 nM. Consider `O=C(Cc1ccc(F)c(Br)c1)N1CCN(c2ccc3nncn3n2)CC1` [Example 10241, 2-(3-bromo-4-fluorophenyl)-1-(4-{[1,2,4]triazolo[4,3-b]pyridazin-6-yl}piperazin-1-yl)ethan-1-one], for which the half-maximal effective concentration (EC50) with C. parvum (setting [1]) and in the test on C. parvum (setting [2]) was 232 nM throughout. On to `COc1ccc(CC(=O)N2CCN(c3ccc4nncn4n3)CC2)cc1` [Example 2761, 2-(4-methoxyphenyl)-1-(4-{[1,2,4]triazolo[4,3-b]pyridazin-6-yl}piperazin-1-yl)ethan-1-one], for which the EC50 with C. parvum (setting [1]) was 16400 nM.

Take `O=C(Cc1ccc(Br)c(Cl)c1)N1CCN(c2ccc3nncn3n2)CC1` [Example 10238, 2-(4-bromo-3-chlorophenyl)-1-(4-{[1,2,4]triazolo[4,3-b]pyridazin-6-yl}piperazin-1-yl)ethan-1-one]: the EC50 in the test on C. parvum (setting [1]) and in the test on C. parvum (setting [2]) was 251 nM in each case. With `O=C(Cc1c(Cl)cccc1Cl)N1CCN(c2ccc3nncn3n2)CC1` [Example 2720, 2-(2,6-dichlorophenyl)-1-(4-{[1,2,4]triazolo[4,3-b]pyridazin-6-yl}piperazin-1-yl)ethan-1-one], the 50% effective concentration (EC50) in the test on C. parvum (setting [1]) is greater than 25000 nM. Regarding `O=C(Cc1ccc(Cl)c(Cl)c1)N1CCN(c2ccc3nnc(Cc4ccccc4)n3n2)CC1` [Example 10249, 1-(4-{3-benzyl-[1,2,4]triazolo[4,3-b]pyridazin-6-yl}piperazin-1-yl)-2-(3,4-dichlorophenyl)ethan-1-one], the EC50 with C. parvum (setting [1]) turned out to be 16000 nM. Same read-out and setting: under `O=C(Cc1ccc(C(F)(F)F)c(F)c1)N1CCN(c2ccc3nncn3n2)CC1` [Example 10480, 2-[3-fluoro-4-(trifluoromethyl)phenyl] -1-(4-{[1,2,4]triazolo[4,3-b]pyridazin-6-yl}piperazin-1-yl)ethan-1-one] stands 2000 nM.
